# Experimental data reported in ChEMBL document CHEMBL1131970, “The design of (-)-(S)-2-nitrooxyethyl 1,4-dihydro-2,6-dimethyl-3-nitro-4-(2-trifluoromethylphenyl) pyridine-5-carboxylate: a cardioselective positive inotropic derivative of Bay K 8644” (Bioorg Med Chem Lett, 1999).
# How the values were obtained:
# Type in all cases: functional
# Cavia porcellus [1] = species on record: Cavia porcellus; test: In vitro for cardiac calcium channel (CC) agonist activity; Active; conditions: read-out: ED50 (the source's name)
# Cavia porcellus [2] = species on record: Cavia porcellus; test: In vitro for smooth muscle calcium channel antagonist activity; conditions: Muscle tissue
# Cavia porcellus [3] = species on record: Cavia porcellus; test: In vitro cardiac calcium channel (CC) agonist activity; conditions: read-out: ED50 (the source's name)
# Cavia porcellus [4] = species on record: Cavia porcellus; test: In vitro release of nitric oxide by nitrite quantitation in the absence of N-acetyl-cysteamine by Griess reaction
# Cavia porcellus [5] = species on record: Cavia porcellus; test: In vitro release of nitric oxide by nitrite quantitation in the presence of N-acetyl-cysteamine by Griess reaction
SMILES,EC50 (Cavia porcellus [1]),IC50 (Cavia porcellus [2]),EC50 (Cavia porcellus [3]),Release (Cavia porcellus [4]),Release (Cavia porcellus [5])
CC1=NC(C)=C([N+](=O)[O-])[C@@H](c2ccccc2C(F)(F)F)/C1=C(\O)OCCO[N+](=O)[O-],,16 µM,0.92 µM,,
CC1=NC(C)=C([N+](=O)[O-])C(c2ccccc2C(F)(F)F)/C1=C(\O)OCCO[N+](=O)[O-] (stereo not given),,,,1.09%,2.7%
O=[N+]([O-])OCC(CO[N+](=O)[O-])O[N+](=O)[O-] [NITROGLYCERIN],,,,0.18%,5.3%

# Further lines, with some results ahead:
EC50 (Cavia porcellus [1]),IC50 (Cavia porcellus [2]),EC50 (Cavia porcellus [3]),SMILES,Release (Cavia porcellus [4]),Release (Cavia porcellus [5])
0.92 µM,16 µM,,CO/C(O)=C1\C(C)=NC(C)=C([N+](=O)[O-])[C@H]1c1ccccc1C(F)(F)F,,
,0.079 µM,16 µM,CC1=NC(C)=C([N+](=O)[O-])[C@H](c2ccccc2C(F)(F)F)/C1=C(\O)OCCO[N+](=O)[O-],,
